Laboratory results reported in ChEMBL document CHEMBL5113483, “Design and synthesis of NAD(P)H: Quinone oxidoreductase (NQO1)-activated prodrugs of 23-hydroxybetulinic acid with enhanced antitumor properties” (Eur J Med Chem, 2022).

Assays:
NCI-H596 = assay: Antiproliferative activity against NQO1-deficient human NCI-H596 cells assessed as inhibition of cell growth incubated for 72 hrs by MTT assay; type: functional, cell-based; settings: NCI-H596, 72 h
[1] = Cytotoxicity against human HFL1 cells assessed as inhibition of cell growth incubated for 72 hrs by MTT assay; type: toxicity, cell-based
[2] = Selectivity index, ratio of IC50 for antiproliferative activity against NQO1-deficient human NCI-H596 cells to IC50 for antiproliferative activity against human HT-29 cells overexpressing NQO1; type: functional
HT-29 [3] = assay: Antiproliferative activity against human HT-29 cells overexpressing NQO1 assessed as inhibition of cell growth incubated for 72 hrs by MTT assay; type: functional, cell-based; settings: HT-29, 72 h
A549 = assay: Antiproliferative activity against human A549 cells overexpressing NQO1 assessed as inhibition of cell growth incubated for 72 hrs by MTT assay; type: functional, cell-based; settings: A549, 72 h
[4] = Selectivity index, ratio of IC50 for cytotoxicity against human HFL1 cells to IC50 for antiproliferative activity against human HT-29 cells overexpressing NQO1; type: toxicity, cell-based; settings: HFL1 cells versus HT-29 cells overexpressing NQO1, read-out: Ratio IC50
[5] = Toxicity in […] xenografted with human HT-29 cells overexpressing NQO-1 assessed as reduction in body weight at 30 mg/kg, ip administered for 21 days and measured every 2 days; type: organism-based; settings: in vivo, 504 h, time 21 day
HT-29 [6] = assay: Antitumor activity against human HT-29 cells overexpressing NQO-1 xenografted in ICR mouse assessed as reduction in tumor weight at 30 mg/kg, ip administered every 2 days for 21 days and measured every 2 days relative to control; type: functional; set-up: scale not given: the % may be the effect or the level left
HT-29 [7] = assay: Antitumor activity against human HT-29 cells overexpressing NQO-1 xenografted in ICR mouse assessed as reduction in tumor weight at 30 mg/kg, ip administered every day for 21 days and measured every 2 days relative to control; type: functional; set-up: scale not given: the % may be the effect or the level left; settings: time 21 day
HT-29 [8] = assay: Antiproliferative activity against human HT-29 cells overexpressing NQO1 assessed as inhibition of cell growth preincubated with NQO1 inhibitor, dicoumarol for 30 mins followed by compound addition and measured after 72 hrs by MTT assay; type: functional, cell-based
[9] = Selectivity index, ratio of IC50 for antiproliferative activity against human HT-29 cells overexpressing NQO1 in presence of dicoumarol to antiproliferative activity against human HT-29 cells overexpressing NQO1; type: functional

| Compound | IC50 (NCI-H596) [µM] | IC50 at 72 h [1] [µM] | Ratio IC50 [2] | IC50 (HT-29 [3]) [µM] | IC50 (A549) [µM] | selectivity ratio [4] | Activity [5] | Activity (HT-29 [6]) [%] | Activity (HT-29 [7]) [%] | IC50 (HT-29 [8]) [µM] | Ratio IC50 [9] |
| --- | --- | --- | --- | --- | --- | --- | --- | --- | --- | --- | --- |
| C=C(C)[C@@H]1CC[C@]2(C(=O)OCCOC(=O)CCC(=O)OCc3cn(C)c4c3C(=O)C(OC)=CC4=O)CC[C@]3(C)[C@H](CC[C@@H]4[C@@]5(C)CC[C@H](OC(=O)CCC(=O)N6CCNCC6)[C@@](C)(COC(C)=O)[C@@H]5CC[C@]43C)[C@@H]12 | 6.39 | 6.79 | 2.12 | 3.29 | 5.45 | 1.99 | – | – | – | – | – |
| C=C(C)[C@@H]1CC[C@]2(C(=O)O)CC[C@]3(C)[C@H](CC[C@@H]4[C@@]5(C)CC[C@H](OC(=O)CCC(=O)OCc6cn(C)c7c6C(=O)C(OC)=CC7=O)[C@@](C)(COC(C)=O)[C@@H]5CC[C@]43C)[C@@H]12 | 5.74 | 7.25 | 1.97 | 3.69 | 4.52 | 1.56 | – | – | – | – | – |
| C=C(C)[C@@H]1CC[C@]2(C(=O)OCCOC(=O)CCC(=O)OCc3cn(C)c4c3C(=O)C(OC)=CC4=O)CC[C@]3(C)[C@H](CC[C@@H]4[C@@]5(C)CC[C@H](NC(=O)CCC(=O)N6CCNCC6)[C@@](C)(COC(C)=O)[C@@H]5CC[C@]43C)[C@@H]12 | 6.44 | 7.11 | 1.96 | 3.63 | 5.17 | 1.77 | – | – | – | – | – |
| COc1cccc2c1C(=O)c1c(O)c3c(c(O)c1C2=O)C[C@@](O)(C(=O)CO)C[C@@H]3O[C@H]1C[C@H](N)[C@H](O)[C@H](C)O1 [DOXORUBICIN] | 1.52 | – | – | 1.13 | 1.15 | – | – | – | – | – | – |
| O=c1[nH]cc(F)c(=O)[nH]1 [FLUOROURACIL] | – | – | – | – | – | – | Toxic | 65.07 | – | – | – |
| C=C(C)[C@@H]1CC[C@]2(C(=O)OCCOC(=O)CCC(=O)OCc3cn(C)c4c3C(=O)C(OC)=CC4=O)CC[C@]3(C)[C@H](CC[C@@H]4[C@@]5(C)CCC(=O)[C@@](C)(COC(C)=O)[C@@H]5CC[C@]43C)[C@@H]12 | 5.64 | 6.53 | 1.95 | 3.35 | 3.04 | 1.68 | – | – | – | – | – |
| C=C(C)[C@@H]1CC[C@]2(C(=O)O)CC[C@]3(C)[C@H](CC[C@@H]4[C@@]5(C)CC[C@H](OC(=O)CCCC(=O)OCc6cn(C)c7c6C(=O)C(OC)=CC7=O)[C@@](C)(COC(C)=O)[C@@H]5CC[C@]43C)[C@@H]12 | 4.58 | 4.09 | 1.36 | 3.58 | 4.03 | 1.27 | – | – | – | – | – |
| C=C(C)[C@@H]1CC[C@]2(C(=O)O)CC[C@]3(C)[C@H](CC[C@@H]4[C@@]5(C)CC[C@H](O)[C@@](C)(CO)[C@@H]5CC[C@]43C)[C@@H]12 | 58.1 | 75 | 1.36 | 54.8 | 51.4 | 1.06 | – | – | 56.81 | – | – |
| C=C(C)[C@@H]1CC[C@]2(C(=O)OCCOC(=O)CCC(=O)OCc3cn(C)c4c3C(=O)C(OC)=CC4=O)CC[C@]3(C)[C@H](CC[C@@H]4[C@@]5(C)CC[C@H](O)[C@@](C)(COC(=O)C6CCNCC6)[C@@H]5CC[C@]43C)[C@@H]12 | 7.34 | 6.83 | 1.59 | 4.3 | 5.41 | 1.7 | – | – | – | – | – |
| C=C(C)[C@@H]1CC[C@]2(C(=O)N3CCC(N4CCCCC4)CC3)CC[C@]3(C)[C@H](CC[C@@H]4[C@@]5(C)CC[C@H](O)[C@@](C)(COC(=O)CCC(=O)OCc6cn(C)c7c6C(=O)C(OC)=CC7=O)[C@@H]5CC[C@]43C)[C@@H]12 | 6.41 | 6.56 | 3.79 | 1.73 | 2.66 | 3.71 | – | – | – | 7.11 | 4.1 |
| C=C(C)[C@@H]1CC[C@]2(C(=O)N(CCCN(C)C)C(=O)NCC)CC[C@]3(C)[C@H](CC[C@@H]4[C@@]5(C)CC[C@H](O)[C@@](C)(COC(=O)CCC(=O)OCc6cn(C)c7c6C(=O)C(OC)=CC7=O)[C@@H]5CC[C@]43C)[C@@H]12 | 2.78 | 4.22 | 1.85 | 2.28 | 2.32 | 1.23 | – | – | – | – | – |
| C=C(C)[C@@H]1CC[C@]2(C(=O)O)CC[C@]3(C)[C@H](CC[C@@H]4[C@@]5(C)CC[C@H](O)[C@@](C)(COC(=O)CCCC(=O)OCc6cn(C)c7c6C(=O)C(OC)=CC7=O)[C@@H]5CC[C@]43C)[C@@H]12 | 4.71 | 3.23 | 1.69 | 1.92 | 2.52 | 2.46 | – | – | – | – | – |
| C=C(C)[C@@H]1CC[C@]2(C(=O)NCCNC(=O)CCC(=O)OCc3cn(C)c4c3C(=O)C(OC)=CC4=O)CC[C@]3(C)[C@H](CC[C@@H]4[C@@]5(C)CC[C@H](OC(C)=O)[C@@](C)(COC(C)=O)[C@@H]5CC[C@]43C)[C@@H]12 | 7.89 | 5.78 | 3.01 | 1.92 | 3.1 | 4.1 | – | – | – | 8.02 | 4.2 |
